Measurements taken from patent US11045416B2, “Topical compositions comprising Pichia anomala and retinol” (Johnson & Johnson Consumer Inc., priority 2018, dated 2021).

Tested on: Heparin Binding Epidermal Growth Factor (HBEGF)
Test: HBEGF gene expression in human skin explants by qPCR (Example 3)
Format: cell-based
Settings: 4 μL topically, 48 hours; observed minus untreated (100)
Description: First, abdominal skin samples were obtained from human adults undergoing abdominoplasty surgery. Informed consent was obtained from each patient, and all experimental steps were approved by an institutional review board (IRB). Subcutaneous fat was carefully removed and skin biopsies of 0.93 cm^2 were prepared under sterile conditions and acclimated in keratinocyte growth media sold under the tradename KGM-GOLD BULLETKIT (Lonza, Walkersville, Md.), with 10% antibiotics under a 5% CO2 humidified atmosphere overnight.
The skin explants were treated topically with 4 μL of the various formulations and left to incubate for 48 hours. An untreated explant sample was used as the control. In the case of combined application of Composition 5 and the 5% solution of Pichia anomala extract, 4 μL of each were applied. At the end of the 48 h, epidermis and dermis were separated by heating. […]
Gene expression assays were performed by real time quantitative polymerase chain reaction (PCR) based on the SyBR green method. qPCR was run on a real time PCR system sold under the tradename CFX96 TOUCH (Bio-Rad Laboratories, Inc., Hercules, Calif.). […] The fold changes were calculated in comparison to the untreated controls and ANOVA statistical test was performed.

- HBEGF expression, Observed Normalized to untreated: 291
SMILES: CC1=C(/C=C/C(C)=C/C=C/C(C)=C/CO)C(C)(C)CCC1 [retinol, Retinol]
